Measurements taken from patent US12485187B2, “Method for improving retroviral transduction and gene editing in hematopoietic stem cells using clyclosporin H and UM171” (Ospedale San Raffaele S.R.L, priority 2017, dated 2025).

Key:
human CD34+ HSPCs = conditions: for effect on LV transduction of combining the compound with CsH: hCB- and mPB-derived HSPC, LV MOI 1 or 10
human HSPCs = experiment: Colony-forming cell assay; assay type: cell-based
Protocol: Colony-forming cell assays were performed by plating 8×10^2 human HSPCs transduced in the presence of the different compounds in a methylcellulose-based medium (Methocult GF4434; Stem Cell Technologies). Fifteen days later colonies were scored by light microscopy for colony numbers and morphology. CFU-E and BFU-E were scored as erythroid colonies, while CFU-G, CFU-M and CFU-GM and CFU-GEMM were scored as myeloid colonies. Moreover, single colonies were plucked for molecular analysis.

CB-derived CD34+ HSPCs = conditions: Wang et al. 2014; cited from earlier work

Compound | effect on LV transduction of combining the compound with CsH (human CD34+ HSPCs) | colony-forming capacity (human HSPCs; mPB-CD34+ cells, IDUA-LV MOI 50, vs control) | LV integration site profile in human HSPCs (CB-derived CD34+ HSPCs) | VCN in vitro (human CD34+ HSPCs; BM-derived CD34+ cells, single hit IDUA/ARSA-LV vs two-hit standard (MOI 100)) | transduction efficiency of clinical-grade IDUA and ARSA-LV (human CD34+ HSPCs; BM-derived CD34+ cells, single hit vs one-hit control without drugs) | colony-forming capacity (human HSPCs; BM-derived CD34+ cells transduced with IDUA or ARSA LV)
CCCCC[C@H](O)/C=C/[C@H]1[C@H](O)CC(=O)[C@@H]1C/C=C\CCCC(=O)O [prostaglandin E2, Prostaglandin E2, reference compound] | additive | No differences in colony-forming capacity |  |  |  | 
CO[C@H]1C[C@@H]2CC[C@@H](C)[C@@](O)(O2)C(=O)C(=O)N2CCCC[C@H]2C(=O)O[C@H]([C@H](C)C[C@@H]2CC[C@@H](O)[C@H](OC)C2)CC(=O)[C@H](C)/C=C(\C)[C@@H](O)[C@@H](OC)C(=O)[C@H](C)C[C@H](C)/C=C/C=C/C=C/1C [rapamycin, Rapamycin, reference compound] | additive |  | not to impact the LV integration site profile in human HSPCs | comparable to the two-hit gold standard | able to increase transduction efficiency | no alterations in colony-forming capacity were observed
